# Assay results as given in patent publication US20080119457A1, “Benzene, Pyridine, and Pyridazine Derivatives” (SERENEX, INC., priority 2006, published 2008).
# Test system: HSP-90 (heat shock protein 90)
# Test: Determination of affinity for HSP-90 (elution from purine affinity column)
# Format: binding
# Parameters: key: +++ stands for very high; ++ for high; + for moderate
# Description: Affinity of test compounds for HSP-90 is determined as follows: Protein mixtures obtained from a variety of organ tissues (for example: spleen, liver and lung) are reversibly bound to a purine affinity column to capture purine-binding proteins, especially HSP-90. The purine affinity column is washed several times, and then eluted with 20 μM, 100 μM, and 500 μM of test compound. Compounds of Formula I elute HP-90 in a dose-dependent manner vs. a control elution using dimethylsulfoxide. The elution profile of Formula I compounds is determined by 1-dimensional SDS polyacrylamide gel electrophoresis. Gels are stained with a fluorescent stain such as sypro ruby (a highly sensitive fluorescent protein stain that can readily detect less than 1 fmol of total protein, i.e., less than 0.04 ng for a 40 kDa protein) or silver nitrate. The gels are imaged using a standard flat bed gel imager and the amount of protein estimated by densitometry. The percent of HSP-90 protein eluted from the column at each concentration is determined and IC50 values are calculated from these estimates.
row,SMILES,relative binding affinity to HSP-90
1,"COc1ccc2ccn(-c3ccc(C#N)c(N[C@H]4CC[C@H](O)CC4)c3)c2c1 [Compound 19, 2-(4-Hydroxycyclohexylamino)-4-(6-methoxyindol-1-yl)benzonitrile]",+++
2,"COc1cccc2c1ccn2-c1ccc(C#N)c(N[C@H]2CC[C@H](O)CC2)c1 [Compound 21, 2-(4-Hydroxycyclohexylamino)-4-(4-methoxyindol-1-yl)benzonitrile]",+++
3,"CC(=O)c1ccc(-c2ccc(C#N)c(NC3CCC(O)CC3)c2)s1 (centres unmarked) [Compound 23, 4-(5-Acetyl-thiophen-2-yl)-2-(4-hydroxy-cyclohexylamino)-benzonitrile]",++
4,"NC(=O)c1ccc(-n2ccc3ccccc32)c(Cl)c1 [Compound 46, 3-chloro-4-(1H-indol-1-yl)benzamide]",++
5,"COCC(C)Nc1cc(-n2cc(C)c(C(C)=O)c2C)ccc1C(N)=O (centres unmarked) [Compound 47, 4-(3-acetyl-2,4-dimethyl-1H-pyrrol-1-yl)-2-(1-methoxypropan-2-ylamino)benzamide]",++
6,"COc1cc2ccn(-c3ccc(C#N)c(Nc4ccccc4)c3)c2cc1OC [Compound 34, 4-(5,6-dimethoxy-1H-indol-1-yl)-2-(phenylamino)benzonitrile]",+

# More lines, now with the values ahead:
row,relative binding affinity to HSP-90,SMILES
1,+++,"Cc1nc(-c2ccc(C#N)c(NC3CCOCC3)c2)n2c1C(=O)CCC2 [Compound 35, 4-(1-methyl-8-oxo-5,6,7,8-tetrahydroimidazo[1,5-a]pyridin-3-yl)-2-(tetrahydro-2H-pyran-4-ylamino)benzonitrile]"
2,+,"Cc1nn(-c2ccc(C(N)=O)c(NC3CCOCC3)c2)c2nc[nH]c(=O)c12 [Compound 9, 4-(3-Methyl-4-oxo-4,5-dihydro-pyrazolo[3,4-d]pyrimidin-1-yl)-2-(tetrahydro-pyran-4-ylamino)-benzamide]"
3,+++,"Cn1nc(-c2ccc(C(N)=O)c(NC3CCOCC3)c2)c2c1C(=O)CC(C)(C)C2 [Compound 3, 2-(Tetrahydro-pyran-4-ylamino)-4-(1,5,5-trimethyl-7-oxo-4,5,6,7-tetrahydro-1H-indazol-3-yl)-benzamide]"
4,+++,"Cc1cc(=O)c2c(C)nn(-c3ccc(C(N)=O)c(NC4CCOCC4)c3)c2o1 [Compound 7, 4-(3,6-Dimethyl-4-oxo-4H-pyrano[2,3-c]pyrazol-1-yl)-2-(tetrahydro-pyran-4-ylamino)-benzamide]"
5,+++,"N#Cc1ccc(-c2ccc3n2CCCC3=O)cc1NC1CCC(O)CC1 (centres unmarked) [Compound 51, 2-(4-hydroxycyclohexylamino)-4-(8-oxo-5,6,7,8-tetrahydroindolizin-3-yl)benzonitrile]"
